Data set [1] deals with HCA7 human colon tumor cell line. Description: XTT cell viability (antitumoral activity), HCA7. Format: cell-based. Conditions: HCA-7, incubation time (4 h or 60 h) not stated, read-out: CI50 (μM) colon HCA7. The method, then: (§1) The antitumor activity of inventive compounds was evaluated measuring cell metabolic capacity (viability), using the XTT kit and following the recommendations of the manufacturer (Roche Diagnostics). The assays were carried out a minimum of five times, with controls containing unexposed cells, cells with vehicle, or media plus compound. Cells were seeded into 96-well plates in 100 μl of media and incubated for 24 h. Afterwards, the inventive compounds were added at different combination of concentrations (from 1 μM to 80 μM) for 4 h (short time XTT) or 60 h (long time XTT). At the end of the incubation period, 50 μl of a mixture containing XTT and electron coupling reagent to each well were added. After 4 h of incubation at 37° C. the absorbance at 490 nm was noted. The growth inhibitory activity of each compound, was obtained subtracting the absorbance of the blanks and expressed as percentage of cell growth inhibition, as compared with untreated controls. The inhibitory concentration 50 (IC50) was determined from the dose-response curves of compound concentration versus percentage of cell viability with the Hill sigmoidal equation (three parameters), using Sigmaplot 5.0 software.

Data set [2] has as its system HT29 human colon tumor cell line. Description: XTT cell viability (antitumoral activity), HT29. As to conditions: HT-29, incubation time (4 h or 60 h) not stated, read-out: CI50 (μM) colon HT29. Format: cell-based. The method, then:
as §1
On the technique in general: Tetrazolium dyes change colour on reduction, which living cells bring about.

Data set [3] deals with NC59 human colon tumor cell line. Description: XTT cell viability (antitumoral activity), NC59. The class given is cell-based. Conditions: incubation time (4 h or 60 h) not stated, read-out: CI50 (μM) colon NC59. The method, then:
as §1

In data set [4] the test system is PC3 human prostata tumor cell line. Description: XTT cell viability (antitumoral activity), PC3. Format: cell-based. Conditions: incubation time (4 h or 60 h) not stated, read-out: CI50 (μM) prostata PC3. The method, then: as §1
A further data set addresses COX-1 (Homo sapiens, UniProt P23219). Description: Inhibition of enzyme COX-1. Format: biochemical.
In the next data set the target is T1, COX-2 (Homo sapiens, UniProt P35354).
T1 sequence (P35354 18-604): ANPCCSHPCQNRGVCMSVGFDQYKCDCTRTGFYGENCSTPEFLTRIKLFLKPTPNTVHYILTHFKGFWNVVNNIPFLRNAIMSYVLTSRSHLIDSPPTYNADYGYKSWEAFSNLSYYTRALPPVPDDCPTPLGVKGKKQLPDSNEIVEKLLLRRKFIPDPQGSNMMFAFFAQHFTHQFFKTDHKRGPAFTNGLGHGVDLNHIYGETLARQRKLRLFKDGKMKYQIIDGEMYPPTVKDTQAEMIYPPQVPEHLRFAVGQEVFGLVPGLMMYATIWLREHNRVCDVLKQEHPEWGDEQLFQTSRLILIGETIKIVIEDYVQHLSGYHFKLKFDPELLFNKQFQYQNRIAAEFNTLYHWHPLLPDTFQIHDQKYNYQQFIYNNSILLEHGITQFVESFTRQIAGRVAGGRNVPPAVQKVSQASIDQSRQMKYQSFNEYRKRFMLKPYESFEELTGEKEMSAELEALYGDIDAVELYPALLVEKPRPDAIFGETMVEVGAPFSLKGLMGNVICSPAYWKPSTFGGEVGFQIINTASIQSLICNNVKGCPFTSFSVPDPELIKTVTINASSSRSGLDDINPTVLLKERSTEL
Description: Inhibition of enzyme COX-2. Format: biochemical.

COX-1, sequence (P23219 24-599): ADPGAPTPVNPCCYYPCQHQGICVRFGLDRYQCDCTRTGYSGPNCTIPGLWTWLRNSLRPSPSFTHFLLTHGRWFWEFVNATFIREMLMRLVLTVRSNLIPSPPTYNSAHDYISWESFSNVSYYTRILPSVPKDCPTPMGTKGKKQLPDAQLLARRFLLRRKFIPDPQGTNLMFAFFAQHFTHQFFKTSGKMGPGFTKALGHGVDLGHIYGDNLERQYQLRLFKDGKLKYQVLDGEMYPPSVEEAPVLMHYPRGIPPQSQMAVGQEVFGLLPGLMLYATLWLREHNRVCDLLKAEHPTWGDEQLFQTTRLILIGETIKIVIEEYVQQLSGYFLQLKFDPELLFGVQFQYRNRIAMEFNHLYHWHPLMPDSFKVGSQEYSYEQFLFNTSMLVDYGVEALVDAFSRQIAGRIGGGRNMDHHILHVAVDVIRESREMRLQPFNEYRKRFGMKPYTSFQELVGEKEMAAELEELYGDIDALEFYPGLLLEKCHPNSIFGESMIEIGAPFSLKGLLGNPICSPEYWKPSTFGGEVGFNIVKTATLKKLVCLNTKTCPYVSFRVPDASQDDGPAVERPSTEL

For `Cc1ccc(-c2cc(C(F)(F)F)nn2-c2ccc(S(N)(=O)=O)cc2)cc1` [Celecoxib, reference compound], the IC50 in data set [1] was 26.5 µM; in data set [2], 21.5 µM; in data set [3], 18.2 µM; in data set [4], 30.6 µM.
Broadly, the melting point is the temperature of the solid-liquid transition. Take `Cc1ccc(C)c(C2CC(C(F)(F)F)=NN2c2ccc(S(N)(=O)=O)cc2)c1` (stereo not drawn) [Example 1, 4-[5-(2,5-dimethyl-phenyl)-3-trifluoromethyl-4,5-dihydro-pyrazol-1-yl]-benzenesulfonamide]: the melting point is 200 to 202 °C. The IC50 in data set [1] was determined as 10.5 µM. Further, the IC50 in data set [2] was 14.9 µM. In data set [3], the IC50 was determined as 16.3 µM. Further, the “inhibiting activity of enzyme COX-1” value on COX-1 was “do not display any inhibiting activity”. In data set [4], the IC50 worked out at 12.3 µM. Further, the “inhibiting activity of enzyme COX-2” value on COX-2 is “do not display any inhibiting activity”.
The molecule `NS(=O)(=O)c1ccc(N2N=C(C(F)(F)F)CC2c2cc(C(F)(F)F)cc(C(F)(F)F)c2)cc1` (stereo not drawn) [Example 2, 4-[5-(3,5-bis-trifluoromethyl-phenyl)-3-trifluoromethyl-4,5-dihydro-pyrazol-1-yl]-benzenesulfonamide] came in with a melting point of 195 to 197 °C. In addition, the “inhibiting activity of enzyme COX-1” value on COX-1 is listed as “do not display any inhibiting activity”. For the same molecule, the IC50 in data set [4] was 10.6 µM. The “inhibiting activity of enzyme COX-2” value at COX-2 was “do not display any inhibiting activity”.

The record behind these values is patent US20050182119A1, “Substituted pyrazoline derivatives” (priority 2004, published 2005).
